Test results published in US12134620B2 (ARAXES PHARMA LLC, priority 2018, dated 2024).

These compounds were tested against T1, KRAS G12C 1-169, his-tagged protein, GDP-loaded (Homo sapiens, UniProt P01116, G12C) (assay: Biochemical assay: covalent modification of KRAS G12C, analysed by mass spectrometry (RapidFire/TOF or Q-Exactive)). Conditions: Modification activity, modification percentage from MS peak intensities.
T1 construct: KRAS G12C 1-169, his-tagged protein, GDP-loaded; His tag
Type: binding
Method: Test compounds are prepared as 10 mM stock solutions in DMSO (Fisher cat. #BP-231-100). KRAS G12C 1-169, his-tagged protein, GDP-loaded is diluted to 2 μM or 0.5 μM in buffer (20 mM Hepes, 150 mM NaCl, 1 mM MgCl2). Compounds are tested for activity as follows:
Compounds are diluted to 50× final test concentration in DMSO in 96-well storage plates. Compound stock solutions are vortexed before use and observed carefully for any sign of precipitation. Dilutions are as follow: • For 32 μM final compound concentration, compounds are diluted to 1600 μM (3 μL 10 mM compound stock+15.75 μL DMSO and mixed well by pipetting. • For 8 μM final compound concentration, compounds are diluted to 400 μM (2 μL 10 mM compound stock+48 μL DMSO) and mixed well by pipetting. 49 μL of the stock protein solution is added to each well of a 96-well PCR plate (Fisher cat #1423027). 1 μl of the diluted 50× compounds are added to appropriate wells in the PCR plate using 12-channel pipettor. Reactions are mixed carefully and thoroughly by pipetting up/down with a 200 μL multi-channel pipettor. The plate is sealed well with aluminum plate seal, and protein and compound are allowed to react for a desired amount of time. 5 μL of 2% formic acid (Fisher cat #A117) in de-ionized H2O is then added to each well followed by mixing with a pipette to quench the reaction. The plate is then resealed with aluminum seal and stored frozen on dry ice until analyzed as described below.
The above described assays are analyzed by mass spectrometry according to one of the following two procedures:
The MS instrument is set to positive polarity, 2 GHz resolution, and low mass (1700) mode and allowed to equilibrate for 30 minutes. The instrument is then calibrated, switched to acquisition mode and the appropriate method loaded.
After another 30 minute equilibration time, a blank batch (i.e., buffer) is run to ensure equipment is operating properly. The samples are thawed at 37° C. for 10 minutes, briefly centrifuged, and transfer to the bench top. Wells A1 and H12 are spiked with 1 μL 500 μM internal standard peptide, and the plates centrifuged at 2000×g for 5 minutes. The method is then run and masses of each individual well recorded.
The masses (for which integration data is desired) for each well are pasted into the platemap and exported from the analysis. Masses for the internal standards are exported as well. The data at 50 ppm is extracted for the +19 charge state, and identity of well A1 is assigned using the internal standard spike and integrated. Peak data is exported as a TOF list and the above steps are repeated individually, for the +20, +21, +22, +23, +24, and +25 charge states.
The masses and peak intensities of KRAS G12C protein species are measured using a Dionex RSLCnano system (Thermo Scientific) connected to a Q Exactive Plus mass spectrometer (Thermo Scientific).
20 μL of sample is each loaded onto a Aeris™ 3.6 μm WIDEPORE C4 200 Å, LC Column 50×2.1 mm column maintained at 40° C. at a flow rate of 600 μL/min with 80% Solvent A (0.1% formic acid in H2O) and 20% Solvent B (0.1% formic acid in acetonitrile). The liquid chromatography conditions are 20% solvent B for 1 minute, 20% to 60% solvent B for 1.5 minutes, 60% to 90% solvent for 0.5 minute, 90% solvent B for 0.2 minute, 90% to 20% solvent B for 0.2 minute, and then equilibrated for 1.6 minute before the following sample injection. The flow rate is maintained at 600 μL/min throughout the sample analysis.
The mass spectrometer is operated in profile mode at a resolution of 17500, 5 microscans, using 50 msec max injection time and an AGC target of 1×10^6, and a full mass range from 800-1850 m/z is recorded. The intact protein mode is applied for optimal ion transfer and maximum sensitivity. The ionization method is electrospray ionization, which used a spray voltage of 4 kV, sheath gas flow set to 50 AU, auxiliary gas flow set to 10 AU and sweep gas flow set to 1 AU. […]

| Structure (SMILES) | Binding % |
| --- | --- |
| C=CC(=O)N1CC2(CCN(c3nc(-c4c(C)ccc5[nH]ncc45)ncc3C#N)C2)C1 [Compound I-141, 4-(2-acryloyl-2,6-diazaspiro[3.4]octan-6-yl)-2-(5-methyl-1H-indazol-4-yl)pyrimidine-5-carbonitrile] | + (+ indicates binding activity greater than 0% and up to 50%) |
| C=CC(=O)N1CC2(CCN(c3ncnc(-c4c(C)ccc5[nH]ncc45)c3CC)C2)C1 [Compound I-262, 1-(6-(5-ethyl-6-(5-methyl-1H-indazol-4-yl)pyrimidin-4-yl)-2,6-diazaspiro[3.4]octan-2-yl)prop-2-en-1-one] | + (+ indicates binding activity greater than 0% and up to 50%) |
| CC#CC(=O)N1CC2(CCN(c3cncc(-c4c(C)ccc5cnn(C)c45)c3C#N)C2)C1 [Compound I-271, 3-(2-(but-2-ynoyl)-2,6-diazaspiro[3.4]octan-6-yl)-5-(1,6-dimethyl-1H-indazol-7-yl)isonicotinonitrile] | + (+ indicates binding activity greater than 0% and up to 50%) |
| Cc1ccc2[nH]ncc2c1-c1cncc(N2CCC3(CN(C(=O)/C=C/CN(C)C)C3)C2)c1C#N [Compound I-279, (E)-3-(2-(4-(dimethylamino)but-2-enoyl)-2,6-diazaspiro[3.4]octan-6-yl)-5-(5-methyl-1H-indazol-4-yl)isonicotinonitrile] | + (+ indicates binding activity greater than 0% and up to 50%) |
| C=CC(=O)N1CC2(CCN(c3nc(OCC(=O)N4CCCC4)nc(-c4c(C)ccc5[nH]ncc45)c3C#N)C2)C1 [Compound I-127, 4-(2-acryloyl-2,6-diazaspiro[3.4]octan-6-yl)-6-(5-methyl-1H-indazol-4-yl)-2-(2-oxo-2-(pyrrolidin-1-yl)ethoxy)pyrimidine-5-carbonitrile] | + (+ indicates binding activity greater than 0% and up to 50%) |
| C=CC(=O)N1CC2(CCN(c3ncnc(-c4c(C)ccc5[nH]ncc45)c3C(F)(F)F)C2)C1 [Compound I-260, 1-(6-(6-(5-methyl-1H-indazol-4-yl)-5-(trifluoromethyl)pyri-midin-4-yl)-2,6-diazaspiro[3.4]octan-2-yl)prop-2-en-1-one] | + (+ indicates binding activity greater than 0% and up to 50%) |
| C=CC(=O)N1CC2(CCN(c3nc(N4CCOCC4)nc(-c4c(C)ccc5[nH]nc(C)c45)c3C#N)C2)C1 [Compound I-78, 4-(2-acryloyl-2,6-diazaspiro[3.4]octan-6-yl)-6-(3,5-dimethyl-1H-indazol-4-yl)-2-morpholinopyrimidine-5-carbonitrile] | +++ (+++ indicates binding activity greater than 85%) |
| C=CC(=O)N1CC2(CCN(c3cnc(OCc4ccccc4)c(-c4c(C)ccc5cnn(C)c45)c3C#N)C2)C1 [Compound I-225, 5-(2-acryloyl-2,6-diazaspiro[3.4]octan-6-yl)-2-(benzyloxy)-3-(1,6-dimethyl-1H-indazol-7-yl)isonicotinonitrile] | ++ (++ indicates binding activity from 50 to 85%) |
| C=CC(=O)N1CC2(CCN(c3nc(OC[C@@H]4CCCN4C)nc(-c4c(C)ccc5[nH]nc(N)c45)c3C#N)C2)C1 [Compound I-108, 4-(2-acryloyl-2,6-diazaspiro[3.4]octan-6-yl)-6-(3-amino-5-methyl-1H-indazol-4-yl)-2-(((S)-1-methylpyrrolidin-2-yl)methoxy)pyrimidine-5-carbonitrile] | ++ (++ indicates binding activity from 50 to 85%) |
| C=CC(=O)N1CC2(CCN(c3nc(N4CCC[C@@H](CO)C4)nc(-c4c(C)ccc5[nH]ncc45)c3C#N)C2)C1 [Compound I-212, 4-(2-acryloyl-2,6-diazaspiro[3.4]octan-6-yl)-2-((R)-3-(hydroxymethyl)piper-idin-1-yl)-6-(5-methyl-1H-indazol-4-yl)pyrimidine-5-carbontrile] | ++ (++ indicates binding activity from 50 to 85%) |
| C=CC(=O)N1CC2(CCN(c3ncnc(-c4cc(O)cc5ccccc45)c3C#N)C2)C1 [Compound I-233, 4-(2-acryloyl-2,6-diazaspiro[3.4]octan-6-yl)-6-(3-hydroxynaphthalen-1-yl)pyrimidine-5-carbonitrile] | + (+ indicates binding activity greater than 0% and up to 50%) |
| Cc1ccc2[nH]ncc2c1-c1nc(OC[C@@H]2CCCN2C)nc(N2CCC3(CN(C(=O)/C=C/CN4CCC4)C3)C2)c1C#N [Compound I-205, 4-(2-((E)-4-(azetidin-1-yl)but-2-enoyl)-2,6-diazaspiro[3.4]octan-6-yl)-6-(5-methyl-1H-indazol-4-yl)-2-(((S)-1-methylpyrrolidin-2-yl)methoxy)pyrimidine-5-carbonitrile] | + (+ indicates binding activity greater than 0% and up to 50%) |
| C=CC(=O)N1CC2(CCN(c3nc(OCc4ccc(N5CCOCC5)cn4)nc(-c4c(C)ccc5[nH]ncc45)c3C#N)C2)C1 [Compound I-153, 4-(2-acryloyl-2,6-diazaspiro[3.4]octan-6-yl)-6-(5-methyl-1H-indazol-4-yl)-2-((5-morpholinopyridin-2-yl)methoxy)pyrimidine-5-carbonitrile] | ++ (++ indicates binding activity from 50 to 85%) |
| C=CC(=O)N1CC2(CCN(c3nc(OCCc4ccccn4)nc(-c4c(C)ccc5[nH]ncc45)c3C#N)C2)C1 [Compound I-8, 4-(2-acryloyl-2,6-diazaspiro[3.4]octan-6-yl)-6-(5-methyl-1H-indazol-4-yl)-2-(2-(pyridin-2-yl)ethoxy)pyrimidine-5-carbonitrile] | +++ (+++ indicates binding activity greater than 85%) |
| C=CC(=O)N1CC2(CCN(c3ncnc(Oc4ccccc4C(N)=O)c3C#N)C2)C1 [Compound I-244, 2-((6-(2-acryloyl-2,6-diazaspiro[3.4]octan-6-yl)-5-cyanopyrimidin-4-yl)oxy)benzamide] | + (+ indicates binding activity greater than 0% and up to 50%) |
| C=CC(=O)N1CC2(CCN(c3nc(N4CCOCC4)nc(-c4c(C)ccc5[nH]ncc45)c3F)C2)C1 [Compound I-118, 1-(6-(5-fluoro-6-(5-methyl-1H-indazol-4-yl)-2-morpholinopyrimidin-4-yl)-2,6-diazaspiro[3.4]octan-2-yl)prop-2-en-1-one] | ++ (++ indicates binding activity from 50 to 85%) |
| C=CC(=O)N1CC2(CCN(c3nc(OC[C@@H]4CCCN4C)nc(N4CCCC(O)C4)c3C#N)C2)C1 (stereo partly drawn) [Compound I-13, 4-(2-acryloyl-2,6-diazaspiro[3.4]octan-6-yl)-6-(3-hydroxypiperidin-1-yl)-2-(((S)-1-methylpyrrolidin-2-yl)methoxy)pyrimidine-5-carbonitrile] | + (+ indicates binding activity greater than 0% and up to 50%) |
| C=CC(=O)N1CC2(CCN(c3cnc(-c4ccccc4)c(-c4c(C)ccc5cnn(C)c45)c3C#N)C2)C1 [Compound I-208, 5-(2-acryloyl-2,6-diazaspiro[3.4]octan-6-yl)-3-(1,6-dimethyl-1H-indazol-7-yl)-2-phenylisonicotinonitrile] | + (+ indicates binding activity greater than 0% and up to 50%) |
| C=CC(=O)N1CC2(CCN(c3nc(OC[C@@H]4CN(C)CCO4)nc(-c4c(C)ccc5[nH]ncc45)c3C#N)C2)C1 [Compound I-81, 4-(2-acryloyl-2,6-diazaspiro[3.4]octan-6-yl)-6-(5-methyl-1H-indazol-4-yl)-2-(((S)-4-methylmorpholin-2-yl)methoxy)pyrimidine-5-carbonitrile] | +++ (+++ indicates binding activity greater than 85%) |
